Test system: subjects with Moderate to Severe Active Ulcerative Colitis
Assay: Follow-up Phase II open-label long-term study of ABX464 25 mg QD (ABX464-108), interim analysis
Format: in vivo, human
Description: • The primary objective of the study is to evaluate the long-term safety of ABX464 given at 25 mg once daily in subjects with Moderate to Severe Active Ulcerative Colitis • Number of Adverse Events (AEs) in ABX464 treated subjects
The secondary objectives are: • To evaluate the long-term effect of ABX464 on clinical remission; • Percentage of subjects reaching clinical remission at yearly visits. • To evaluate the long-term effect of ABX464 on endoscopic remission; • Percentage of subjects reaching endoscopic remission at yearly visits. • To evaluate the long-term effect of ABX464 on clinical response; • Percentage of subjects reaching clinical response at yearly visits. • To evaluate the long-term effect of ABX464 on endoscopic improvement; • Percentage of subjects reaching endoscopic improvement at yearly visits. • To evaluate the long-term effect of ABX464 on inflammatory markers (C-reactive protein (CRP), calprotectin); • The change from Baseline in CRP and fecal calprotectin levels. • To evaluate the safety profile of ABX464; • Number and rate of all AEs and causally-related AEs, all Serious Adverse Events (SAEs) and causally-related SAEs, all AEs of Special Interest (AESIs) and causally-related AESIs, classified by severity; • Incidence of AEs leading to investigational medicinal product discontinuation; • The number of clinically-significant laboratory abnormalities. • To evaluate the effect of ABX464 on miR-124 expression in total blood at every timepoint defined in the schedule of assessment. • Change relative to baseline in miRNA-124 expression in total blood at every defined timepoint.
For the purpose of the study, the following definitions will be applied: • Clinical remission based on the Mayo Scoring system, is defined as stool frequency subscore=0 or 1 and rectal bleeding subscore=0 and endoscopy subscore=0 or 1 (modified to exclude friability). • Clinical Response is defined as a reduction from baseline in modified Mayo Score of at least 2 points and greater than or equal to 30 percent from baseline with an accompanying decrease in rectal bleeding sub-score of greater than or equal to 1 point or absolute rectal bleeding sub-score of less than or equal to 1 point. • Endoscopic remission defined as a Mayo endoscopic sub score of 0. • Endoscopic improvement is defined as a Mayo endoscopic sub score of ≤1 (excluding friability).
This study is an open-label study aiming at evaluating the long-term safety and the efficacy profile of ABX464 given once a day (QD) at 25 mg in subjects who have been previously enrolled in the ABX464-102 or ABX464-104 studies (OLE and maintenance studies) and who are willing to continue their treatment.
All subjects will receive ABX464 given at 25 mg QD.
Subjects will be treated with ABX464 for a maximum period of 54 months. Subjects will be followed up quarterly. After the treatment period, subjects will be followed for 4 additional weeks for safety purposes.
A subject will be eligible to participate in this study if ALL the following criteria are met: • 1. Subjects who previously completed the ABX464-102 or ABX464-104 clinical studies; • 2. Subjects should be in endoscopic improvement with a rectal bleeding sub-score=0 point at the end of treatment period in the previous study (ABX464-102 or ABX464-104). Endoscopic improvement is defined as: a Mayo endoscopic sub score of ≤1; • 3. Subjects able and willing to comply with study visits and procedures; • 4. […]

FC(F)(F)Oc1ccc(Nc2ccc3cccc(Cl)c3n2)cc1 [Obefazimod, 8-chloro-N-[4-(trifluoromethoxy)phenyl]quinolin-2-amine]
Durability of efficacy (MMS evaluation) (25 mg QD in patients who achieved endoscopic improvement after 2-4 years of exposure to 50 mg): continues to have durable efficacy
Proportion of patients with Fecal Calprotectin <250 microgm/gm (63 patients who completed 48-week treatment with 25 mg QD): 93%
Disease control Rate (Stable+improved MMS) (63 patients who completed 48-week treatment with 25 mg QD, after 2-4 years of 50 mg in ABX464-102/-104): 84.1%
New safety signals (UC patients treated for up to 5 years): no new safety signals
Patients withdrawn due to AE (of 74 patients analyzed, 48-week treatment with 25 mg QD): 2 patients

Source: patent US20260224554A1, “OBEFAZIMOD FOR TREATMENT OF ULCERATIVE COLITIS” (ABIVAX, priority 2023, published 2026)
